Like-named read-outs stand apart in the source and are kept apart here.
Tests used:
[1] = system: GFP-expressing HeLa cells; assay: cAMP detection in HeLa expression cell line, GFP control; assay type: cell-based, human; settings: Homo sapiens, HeLa, NA = no activity; for Emax: relative to 100uM forskolin (100%) and DMSO (0%), read-out: GFP Max Activity %
Experimental: (§1) HeLa stable expression cell lines were produced by lentiviral transduction. Briefly, lentiviral plasmids for each GPCR with a C-terminal V5 Tag ([…]) were made in a pLX317 backbone using competent Escherichia coli (New England Biolabs, C3050H). Lenti-X 293 T (Takara, 632810) cells were transfected with the lentiviral plasmids to produce virus. Low-passage HeLa cells (American Type Culture Collection, CCL-2) were then transduced with lentivirus. After 48 hours, HeLa cells were cultured under selection with puromycin (3 μg/ml) and allowed to recover and expand before storing stocks in liquid nitrogen.
(§2) cAMP was measured in cells using the Lance Ultra cAMP Kit. HeLa cells were cultured under puromycin (3 μg/ml) selection. One day before the experiment, cells were seeded in T75 flasks and allowed to adhere overnight. On the day of the experiment, cells were washed twice with Dulbecco’s PBS and lifted using prewarmed 1× versene solution (Gibco, 15040066). Cells were counted in HBSS (Gibco, 14025092) and then resuspended in stimulation buffer prepared according to the manufacturer’s instructions and adjusted to pH 7.2 using 1 M sodium hydroxide. Cells were added to the plate at a density of 1500 cells per well in white opaque 384-well assay ready microplates containing 100 nl of 10 mM compound in DMSO. Cells were stimulated for 30 min at RT, then lysed and incubated with detection reagents for 1 hour in the dark at RT. Plates were read on BMG Labtech PHERAstar FSX (excitation, 337 nm; emission, 620 and 665 nm). Data analysis was performed using GraphPad Prism.

mGPR65 = target: T1, mGPR65 (Mus musculus, UniProt Q61038); assay: cAMP detection in HeLa expression cell line, mGPR65; assay type: cell-based; settings: NA = no activity; for Emax: HeLa, relative to 100uM forskolin (100%) and DMSO (0%), read-out: mGPR Max Activity %
T1 construct: expressed in transfected cells; host or cells: HeLa (ATCC CCL-2), lentiviral transduction, pLX317
T1 sequence (Q61038 whole entry): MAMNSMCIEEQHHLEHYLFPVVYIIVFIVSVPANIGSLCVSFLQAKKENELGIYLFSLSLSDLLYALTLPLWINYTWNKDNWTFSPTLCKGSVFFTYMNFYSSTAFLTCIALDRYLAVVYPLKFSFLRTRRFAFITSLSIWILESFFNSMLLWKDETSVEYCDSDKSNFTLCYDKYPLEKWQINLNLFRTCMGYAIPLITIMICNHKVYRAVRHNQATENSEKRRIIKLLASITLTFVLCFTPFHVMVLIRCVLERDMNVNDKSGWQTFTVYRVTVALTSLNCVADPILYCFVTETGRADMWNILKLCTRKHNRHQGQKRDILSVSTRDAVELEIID
Experimental: as §1, §2

hGPR65 = target: T2, hGPR65 (Homo sapiens, UniProt Q8IYL9); assay: cAMP detection in HeLa expression cell line, hGPR65; assay type: cell-based; settings: NA = no activity; for Emax: HeLa, relative to 100uM forskolin (100%) and DMSO (0%), read-out: hGPR Max Activity %
T2 construct: expressed in transfected cells; host or cells: HeLa (ATCC CCL-2), lentiviral transduction, pLX317
T2 sequence (Q8IYL9 whole entry): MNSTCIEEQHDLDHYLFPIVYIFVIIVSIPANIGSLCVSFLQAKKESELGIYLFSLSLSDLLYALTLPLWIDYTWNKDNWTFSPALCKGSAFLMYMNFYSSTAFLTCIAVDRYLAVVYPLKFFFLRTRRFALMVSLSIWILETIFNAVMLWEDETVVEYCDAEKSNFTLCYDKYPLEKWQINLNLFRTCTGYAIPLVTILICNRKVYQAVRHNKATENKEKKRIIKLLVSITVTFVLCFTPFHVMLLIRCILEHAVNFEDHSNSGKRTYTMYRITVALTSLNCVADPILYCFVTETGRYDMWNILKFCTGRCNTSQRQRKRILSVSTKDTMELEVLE
Experimental: as §1, §2

[2] = 1st mGPR column pair, read-out: mGPR EC50
[3] = 2nd mGPR column pair, read-out: mGPR EC50
[4] = 1st hGPR column pair, read-out: hGPR EC50
[5] = 2nd hGPR column pair, read-out: hGPR EC50

| Compound | EC50 ([1]; 2nd GFP column pair) [nM] | Emax ([1]; 2nd GFP column pair) [%] | EC50 (mGPR65; [2]) [µM] | EC50 (mGPR65; [3]) [µM] | Emax (mGPR65; 2nd mGPR column pair) [%] | Emax (mGPR65) [%] | EC50 (hGPR65; [4]) [nM] | EC50 (hGPR65; [5]) [nM] | Emax (hGPR65; 1st hGPR column pair) [%] | Emax (hGPR65; 2nd hGPR column pair) [%] | EC50 ([1]; 1st GFP column pair) [nM] | Emax ([1]; 1st GFP column pair) [%] | EC50 (mGPR65; mGPR EC50 (uM), 2nd mGPR column pair) [µM] | EC50 (mGPR65; mGPR EC50 (uM)) [µM] | EC50 (hGPR65; hGPR EC50) [nM] |
| --- | --- | --- | --- | --- | --- | --- | --- | --- | --- | --- | --- | --- | --- | --- | --- |
| CCCc1cc(-c2cc(O)n3ncc(C(=O)Nc4ccccc4)c3n2)no1 [BRD0124] | 24600 | 2.25 | 0.247 | 0.151 | 56.2 | 63 | 1120 | 1750 | 62.1 | 71.8 | – | – | – | – | – |
| COCc1ccc(-c2cc(O)n3ncc(C(=O)NC4CCOCC4)c3n2)cc1 [BRD0202] | – | – | – | – | – | – | – | – | – | – | 15600 | 6.11 | – | – | – |
| Cc1n[nH]c(C)c1CCc1cc(O)n2ncc(C(=O)Nc3ccc(Cl)cc3)c2n1 [BRD1303] | – | – | 15.9 | – | – | 10.7 | – | – | – | – | 38600 | 5.8 | – | – | – |
| Cc1ccc(NC(=O)c2cnn3c(O)cc(-c4cccc(C)c4)nc23)cc1 [BRD1420] | – | – | 0.471 | – | – | 2.06 | 3710 | – | 22.9 | – | 317 | 2.36 | – | – | – |
| COCc1ccc(-c2cc(O)n3ncc(C(=O)Nc4ccccc4C)c3n2)cc1 [BRD2974] | – | – | 26.4 | – | – | 8.27 | – | – | – | – | 3660 | 19.4 | – | – | – |
| O=C(O)c1cnn2c(O)cc(-c3ccccc3)nc12 [BRD3374] | – | – | – | – | – | – | – | – | – | – | 3780 | 4.66 | – | – | – |
| Cc1ccc(NC(=O)c2cnn3c(O)cc(-c4ccc(N5CCCC5)cc4)nc23)cc1 [BRD4336] | – | – | – | – | – | – | 8860 | – | 14.5 | – | 13800 | 9.65 | – | – | – |
| Cc1ccc(NC(=O)c2cnn3c(O)cc(-c4ccc(N5CCOCC5)cc4)nc23)cc1 [BRD4390] | 11700 | 2.2 | 0.403 | 1.07 | 26.8 | 26.6 | 703 | 265 | 73.5 | 76.8 | – | – | – | – | – |
| CC(C)OCc1ccc(-c2cc(O)n3ncc(C(=O)Nc4ccccc4)c3n2)cc1 [BRD5060] | 78100 | 2.12 | 2.07 | 1.62 | 48.6 | 64.4 | 3720 | 10800 | 94.5 | 109 | 47000 | 5.52 | – | – | – |
| Cc1ccc(NC(=O)c2cnn3c(O)cc(-c4ccc(N5CCOCC5)c(Cl)c4)nc23)cc1 [BRD5062] | 11400 | 1.01 | 0.46 | 0.284 | 55.1 | 50.8 | 1070 | 851 | 74.5 | 71.6 | 24700 | 3.17 | – | – | – |
| CCOCc1ccc(-c2cc(O)n3ncc(C(=O)Nc4ccccc4)c3n2)cc1 [BRD5063] | 190 | 1.85 | 5.47 | 2.73 | 38 | 52.1 | 4060 | 5840 | 76.1 | 66.6 | – | – | – | – | – |
| COc1cc(-c2cc(O)n3ncc(C(=O)Nc4ccc(C)cc4)c3n2)ccc1F [BRD5066] | 6080 | 1.99 | 1.15 | 0.781 | 29.4 | 31.3 | 1470 | 1840 | 67 | 70.4 | – | – | – | – | – |
| Cc1ccc(NC(=O)c2cnn3c(O)cc(-c4cnc(N5CCN(C)CC5)c(Cl)c4)nc23)cc1 [BRD5069] | – | – | – | – | 42.5 | 63.3 | – | – | – | 1.75 | 1570 | 2.17 | 5.03 | 0.65 | 6240 |
| Cc1ccc(NC(=O)c2cnn3c(O)cc(-c4ccc(N5CCN(C)CC5)nc4)nc23)cc1 [BRD5070] | 421 | 2.13 | 1.35 | 2.15 | 34.4 | 38.5 | 1310 | 68.7 | 13.4 | 4.57 | 3200 | 2.48 | – | – | – |

From publication PMC11259170, “Small-molecule probe for IBD risk variant GPR65 I231L alters cytokine signaling networks through positive allosteric modulation” (Science Advances, 2024)
